From patent EP0091755A1, “Penicillin derivatives, a process for their preparation and compositions containing them” (BEECHAM GROUP PLC, priority 1982, dated 1983) come the findings set out here.

What all share (format): cell-based
The test system of experiment [1] is E Coli JT 425. The experiment in a line: Antibacterial activity (MIC) against E Coli JT 425.
The subject of experiment [2] is Ps aeruginosa 10662. The experiment in a line: Antibacterial activity (MIC) against Ps aeruginosa 10662.
Experiment [3] relates to Klebsiella aerogenes A. The experiment in a line: Antibacterial activity (MIC) against Klebsiella aerogenes A.
Experiment [4] deals with P mirabilis C977. The experiment in a line: Antibacterial activity (MIC) against P mirabilis C977.
For experiment [5], the system named is Staph. aureus Oxford. The experiment in a line: Antibacterial activity (MIC) against Staph. aureus Oxford. The conditions noted are these: Staphylococcus aureus.
Where [6] appears, read: Escherichia coli, E. Coli JT 425, table, read-out: Antibacterial activities (MIC).
Where [7] appears, read: Pseudomonas aeruginosa, Ps. Aeruginosa 10662, table, read-out: Antibacterial activities (MIC).
[8] abbreviates: Klebsiella Aerogenes A, table, read-out: Antibacterial activities (MIC).
[9] abbreviates: Proteus mirabilis, P. Mirabilis C977, table, read-out: Antibacterial activities (MIC).
[10] abbreviates: Staph Aureus Oxford, table, read-out: Antibacterial activities (MIC).
[11] abbreviates: Ps aeruginosa 10662, example, read-out: Antibacterial activity (MIC).
[12] abbreviates: Klebsiella aerogenes A, example, read-out: Antibacterial activity (MIC).
Setting [13] is: P mirabilis C977, example, read-out: Antibacterial activity (MIC).
Where [14] appears, read: Staph. aureus Oxford, example, read-out: Antibacterial activity (MIC).

Like-named read-outs stand apart in the source and are kept apart here.

In general, MIC refers to the least concentration at which growth counts as inhibited. As for `CO[C@@]1(NC(=O)C(NC(=O)Nc2cnc(Nc3ccc(S(N)(=O)=O)cc3)nc2O)c2ccc(OC(C)=O)c(OC(C)=O)c2)C(=O)N2[C@@H](C(=O)O)C(C)(C)S[C@@H]21` (stereo partly drawn) [Example 9, Sodium 6,B-[D,L-2-[3-[2-(4-aminosulphonylphenylamino)-4-hydroxypyrimidin-5-yl]ureido]-2-(3,4-diacetoxyphenyl)acetamido]-6,a-methoxypenicillanate], the MIC in experiment [1] (setting [6]) was 1 µg/mL; in experiment [2] (setting [7]) it was 1 µg/mL; in experiment [3] (setting [8]) it was less than 0.06 µg/mL; in experiment [4] (setting [9]), 2 µg/mL; in experiment [5] (setting [10]) it was less than 128 µg/mL.

In the case of `CO[C@@]1(NC(=O)[C@H](NC(=O)Nc2cnc(Nc3ccc(S(N)(=O)=O)cc3)nc2O)c2ccc(O)cc2)C(=O)N2[C@@H](C(=O)O)C(C)(C)S[C@@H]21` [Example 3, Sodium 6,β-[D-2-[3-[2-(4-aminosulphonylphenylamino)-4-hydroxypyrimidin-5-yl]ureido]-2-(4-hydroxyphenyl)acetamido]-6,a-methoxypenicillanate], the MIC in experiment [1] (E Coli JT 425, example, read-out: Antibacterial activity (MIC)) was 2.5 µg/mL; in experiment [2] (setting [11]), 25 µg/mL; in experiment [3] (setting [12]), 0.2 µg/mL; in experiment [4] (setting [13]) it was 1.25 µg/mL; in experiment [5] (setting [14]), 50 µg/mL.

Turning to `CO[C@@]1(NC(=O)[C@H](NC(=O)Nc2cnc(Nc3ccc(S(N)(=O)=O)cc3)nc2O)c2ccccc2)C(=O)N2[C@@H](C(=O)O)C(C)(C)S[C@@H]21` [Example 1, Sodium 6,β-(D-2-[3-[2-(4-aminosulphonylphenylamino)-4-hydroxypyrimidin-5-yl]ureido]-2-phenylacetamido] -6,a-methoxypenicillanate], the MIC in experiment [2] (setting [11]) was determined as 50 µg/mL; in experiment [3] (setting [12]), 2.5 µg/mL; in experiment [4] (setting [13]), 2.5 µg/mL; in experiment [5] (setting [14]), 10 µg/mL.

For the molecule `CO[C@@]1(NC(=O)[C@H](NC(=O)Nc2cnc(Nc3ccc(S(N)(=O)=O)cc3)nc2O)c2cccs2)C(=O)N2[C@@H](C(=O)O)C(C)(C)S[C@@H]21` [Example 4, Sodium 6β-[D-2-[3-[2-(4-aminosulphonylphenylamino)-4-hydroxypyrimidin-5-yl]ureido]-2-(thien-2-yl)acetamido]-6,a-methoxypenicillanate.], the MIC in experiment [1] (setting [6]) is 1 µg/mL; in experiment [2] (setting [7]) it was 10 µg/mL; in experiment [3] (setting [8]), 0.2 µg/mL; in experiment [4] (setting [9]), 1 µg/mL; in experiment [5] (setting [10]) it was 10 µg/mL.

With `CO[C@@]1(NC(=O)C(NC(=O)Nc2cnc(Nc3ccc(S(N)(=O)=O)cc3)nc2O)c2ccc(F)cc2)C(=O)N2[C@@H](C(=O)O)C(C)(C)S[C@@H]21` (stereo partly drawn) [Example 8, Sodium 6,B-[D,L-2-[3-[2-(4-aminosulphonylphenylamino)-4-hydroxy-pyrimidin-5-yl]ureido]-2-(4-fluorophenyl)-acetamido]-6,a-methoxypenicillanic.], the MIC in experiment [1] (setting [6]) was found to be 16 µg/mL; in experiment [2] (setting [7]), 128 µg/mL; in experiment [3] (setting [8]), 8 µg/mL; in experiment [4] (setting [9]) it was 8 µg/mL; in experiment [5] (setting [10]), 64 µg/mL.

Take `CO[C@@]1(NC(=O)[C@@H](NC(=O)Nc2cnc(Nc3ccc(S(N)(=O)=O)cc3)nc2O)c2cccs2)C(=O)N2[C@@H](C(=O)O)C(C)(C)S[C@@H]21` [Example 5, Sodium 6,β-[L-2-[3-[2-(4 aminosulphonylphenylamino)-4-hydroxy-pyrimidin-5-yl]ureido]-2-thien-2-y-)acetamido]-6α methoxypenicillanate]: the MIC in experiment [1] (setting [6]) came out at 2.5 µg/mL; in experiment [2] (setting [7]) it was 50 µg/mL; in experiment [3] (setting [8]), 1 µg/mL; in experiment [4] (setting [9]) it was 2.5 µg/mL; in experiment [5] (setting [10]) it was 25 µg/mL.

Consider `CO[C@@]1(NC(=O)C(NC(=O)Nc2cnc(Nc3ccc(S(N)(=O)=O)cc3)nc2O)c2ccco2)C(=O)N2[C@@H](C(=O)O)C(C)(C)S[C@@H]21` (stereo partly drawn) [Example 6, Sodium 6,β-[D,L-2-[3-[2-(4-aminosulphonylphenylamino), -4-hydroxypyrimidin-5-yl]-ureido]-2-(furan-2-yl)acetamido]-6,a-methoxy penicillanate], for which the MIC in experiment [1] (setting [6]) is 8 µg/mL; in experiment [2] (setting [7]), 32 µg/mL; in experiment [3] (setting [8]), 0.12 µg/mL; in experiment [4] (setting [9]), 2 µg/mL; in experiment [5] (setting [10]), 16 µg/mL.

As for `CO[C@@]1(NC(=O)C(NC(=O)Nc2cnc(Nc3ccc(S(N)(=O)=O)cc3)nc2O)c2ccccc2F)C(=O)N2[C@@H](C(=O)O)C(C)(C)S[C@@H]21` (stereo partly drawn) [Example 7, Sodium 6,B-[D,L-2-[3-[2-(4-aminosulphonylphenylamino) -4-hydroxypyrimidin-5-yl]ureido]-2-(2-fluorophenyl)acetamido]-6,a-methoxypenicillanate], the MIC in experiment [1] (setting [6]) was 1 µg/mL; in experiment [2] (setting [7]) it was 16 µg/mL; in experiment [3] (setting [8]), 0.25 µg/mL; in experiment [4] (setting [9]), 1 µg/mL; in experiment [5] (setting [10]), 16 µg/mL.
